Assays:
[1] = Concentration delivered to patients; type: in vivo, human; settings: patients treated at 100 mg daily; expected
Excerpt: (§1) (Red=KRAS mutant=UMSCC-74A. Yellow=PI3KCA mutant=CAL33).

[2] = system: head and neck cancer cell lines; assay: Sensitivity of head and neck cancer cell line panels to Compound A (FIG. 1); type: cell-based; settings: majority of the cell lines of two independently tested panels
Excerpt: as §1

[3] = system: UMSCC11A; assay: Cancer cell growth inhibition, cell counting after 5 days; type: cell-based; settings: 120 h
Experimental: (§2) Data was compared with untreated controls. […] Experiments were carried out in duplicate. The table below details the results.

[4] = system: UMSCC1; assay: as above; type: cell-based; settings: Homo sapiens, 120 h
Experimental: as §2

[5] = system: UMSCC5; assay: as above; type: cell-based; settings: UM-SCC-5, 120 h
Experimental: as §2

[6] = system: UPCISCC153; assay: as above; type: cell-based; settings: 120 h
Experimental: as §2

[7] = system: pAKT in FaDu xenograft (Hypopharynx squamous cell carcinoma); assay: pAKT in tumor tissue of FaDu xenograft (FIG. 2); type: in vivo; settings: Compound A at 30 mg daily

Compound | concentration delivered to patients [1] | IC50 [2] [nM] | inhibition at 1 µM ([3]; Compound A 1 μM) [%] | inhibition at 1 µM ([4]; Compound A 1 μM) [%] | inhibition at 1 µM ([5]; Compound A 1 μM) [%] | inhibition at 1 µM ([6]; Compound A 1 μM) [%] | pAKT in tumor tissue [7] | inhibition at 0.001 µg/mL ([3]; paclitaxel 1 ng/ml) [%] | inhibition at 0.001 µg/mL ([4]; paclitaxel 1 ng/ml) [%] | inhibition at 0.001 µg/mL ([5]; paclitaxel 1 ng/ml) [%] | inhibition at 0.001 µg/mL ([6]; paclitaxel 1 ng/ml) [%]
Nc1cc(C(F)(F)F)c(-c2cc(N3CCOCC3)nc(N3CCOCC3)n2)cn1 [Compound A, 5-(2,6-di-morpholin-4-yl-pyrimidin-4-yl)-4-trifluoromethyl-pyridin-2-ylamine] | around 1 μM | < 1000 | 21.9 | 21.2 | 28 | 15 | inhibition of pAKT |  |  |  | 
CC(=O)O[C@H]1C(=O)[C@@]2(C)[C@H]([C@H](OC(=O)c3ccccc3)[C@]3(O)C[C@H](OC(=O)[C@H](O)[C@@H](NC(=O)c4ccccc4)c4ccccc4)C(C)=C1C3(C)C)[C@]1(OC(C)=O)CO[C@@H]1C[C@@H]2O [Paclitaxel, 5β,20-Epoxy1,2a,4,7β, 10β, 13a-hexahydroxytax-11-en-9-one 4, 10,-diacetate 2-benzoate 13-ester with (2R, 3S)—N-benzoyl-3-phenylisoserine, reference compound] |  |  |  |  |  |  |  | 3.13 | 4.6 | 7.6 | 0
